According to patent US11584710B2, “Compounds for treating infections” (HORITZONTS TECNOLOGICS HUNGARY KORLÁTOLT FELELOSSÉGU …, priority 2017, dated 2023):

How the values were obtained:
Format in all cases: cell-based
C. guillermondii = assay: Antifungal disk diffusion susceptibility test (CLSI M44); settings: C. guillermondii; for zone of inhibition at 150 µg/disc: 150 μg/disc; for zone of inhibition at 500 µg/disc: 500 μg/disc
Method: (§1) Filamentous fungi and yeasts strains, from clinical origin, were supplied by Microbiology Service from The Princess Hospital, Madrid. They are detailed in Table IX.
(§2) Filamentous fungi and yeast cells suspensions in distilled water was prepared from a culture of 24-48 h, depending on species, in Sabouraud agar. Each suspension was adjusted to a fixed size inoculum of 1-5×10^8 CFU/ml with a spectrophotometer (Ferraro, MJ National Committee for Clinical Laboratory Standards. 2000).
(§3) Antifungal susceptibility tests were developed following the standardized methodology detailed in document CLSI: M44-4: Method for Antifungal Disk diffusion susceptibility testing of yeasts consisting of disk diffusion on agar Muller-Hinton (supplemented with 2% glucose).

S. cerevisiae = assay: as above; settings: Saccharomyces cerevisiae, S. cerevisiae; for zone of inhibition at 150 µg/disc: 150 μg/disc; for zone of inhibition at 500 µg/disc: 500 μg/disc
Method: as §1, §2, §3

C. lusitaniae = assay: as above; settings: Clavispora lusitaniae, C. lusitaniae; for zone of inhibition at 150 µg/disc: 150 μg/disc; for zone of inhibition at 500 µg/disc: 500 μg/disc
Method: as §1, §2, §3

A. niger = assay: as above; settings: Aspergillus niger, A. niger; for zone of inhibition at 150 µg/disc: 150 μg/disc; for zone of inhibition at 500 µg/disc: 500 μg/disc
Method: as §1, §2, §3

C. parapsilosis = assay: as above; settings: Lodderomyces parapsilosis, C. parapsilosis; for zone of inhibition at 150 µg/disc: 150 μg/disc; for zone of inhibition at 500 µg/disc: 500 μg/disc
Method: as §1, §2, §3

C. albicans = assay: as above; settings: Candida albicans, C. albicans; for zone of inhibition at 150 µg/disc: 150 μg/disc; for zone of inhibition at 500 µg/disc: 500 μg/disc
Method: as §1, §2, §3

A. flavus = assay: as above; settings: Aspergillus flavus, A. flavus; for zone of inhibition at 150 µg/disc: 150 μg/disc; for zone of inhibition at 500 µg/disc: 500 μg/disc
Method: as §1, §2, §3

C. tropicalis = assay: as above; settings: Candida tropicalis, C. tropicalis; for zone of inhibition at 150 µg/disc: 150 μg/disc; for zone of inhibition at 500 µg/disc: 500 μg/disc
Method: as §1, §2, §3

A. terreus = assay: as above; settings: Aspergillus terreus, A. terreus; for zone of inhibition at 150 µg/disc: 150 μg/disc; for zone of inhibition at 500 µg/disc: 500 μg/disc
Method: as §1, §2, §3

A. fumigatus = assay: as above; settings: Aspergillus fumigatus, A. fumigatus; for zone of inhibition at 150 µg/disc: 150 μg/disc; for zone of inhibition at 500 µg/disc: 500 μg/disc
Method: as §1, §2, §3

T. pulmonis = assay: Kirby-Bauer disk diffusion susceptibility test; settings: 300 μg/disc
Method: (§4) Bacterial strains, from clinical origin, were supplied by the National Center for Microbiology, Institute of Health Carlos III (Majadahonda, Madrid). They are detailed in Table 1.
(§5) Bacterial cells suspension in sterile saline was prepared from a culture of 24-72 h, depending on bacterial species, in Mueller-Hinton Agar with 5% sheep blood. Each suspension was adjusted to a fixed size inoculum of 1-5×10^8 CFU/ml with a spectrophotometer (Ferraro, MJ National Committee for Clinical Laboratory Standards. 2000).
(§6) Kirby-Bauer disk diffusion susceptibility test protocol was utilized to determine the sensitivity or resistance of pathogenic bacteria against the compounds and others antibiotics. The absence of growth around the disks is an indirect measure of the ability of this compound to inhibit an organism (Kirby, W., et al., Antibiotics Annu. 1956-1957:892). After 18 to 72 hours of incubation at 37° C., with or without CO2, under aerobic or anaerobic conditions, depending on the bacterial species, halo of growth inhibition were obtained and evaluated.
(§7) Interpretation of susceptibility and resistance was based on the presence or absence of a zone of inhibition surrounding the disk. Kirby-Bauer disk diffusion susceptibility test is a common method which uses antibiotic-impregnated wafers to test whether bacteria are affected by antibiotics. The size of the zone of inhibition depends on how effective the antibiotic is at stopping the growth of the bacterium. A stronger antibiotic will create a larger zone, because a lower concentration of the antibiotic is enough to stop growth.
(§8) All compounds were tested at 300 μg/disc.

N. carnea = assay: Kirby-Bauer disk diffusion susceptibility test; settings: 300 μg/disc
Method: as §4, §5, §6, §7, §8

A. baumannii = assay: Kirby-Bauer disk diffusion susceptibility test; settings: 300 μg/disc
Method: as §4, §5, §6, §7, §8

N. cyriacigeorgica = assay: Kirby-Bauer disk diffusion susceptibility test; settings: 300 μg/disc
Method: as §4, §5, §6, §7, §8

S. pneumoniae = assay: Kirby-Bauer disk diffusion susceptibility test; settings: 300 μg/disc
Method: as §4, §5, §6, §7, §8

K. pneumoniae = assay: Kirby-Bauer disk diffusion susceptibility test; settings: 300 μg/disc
Method: as §4, §5, §6, §7, §8

SMILES	zone of inhibition at 150 µg/disc (C. guillermondii) [mm]	zone of inhibition at 500 µg/disc (C. guillermondii) [mm]	zone of inhibition at 150 µg/disc (S. cerevisiae) [mm]	zone of inhibition at 500 µg/disc (S. cerevisiae) [mm]	zone of inhibition at 150 µg/disc (C. lusitaniae) [mm]	zone of inhibition at 500 µg/disc (C. lusitaniae) [mm]	zone of inhibition at 150 µg/disc (A. niger) [mm]	zone of inhibition at 500 µg/disc (A. niger) [mm]	zone of inhibition at 150 µg/disc (C. parapsilosis) [mm]	zone of inhibition at 500 µg/disc (C. parapsilosis) [mm]	zone of inhibition at 150 µg/disc (C. albicans) [mm]	zone of inhibition at 500 µg/disc (C. albicans) [mm]	zone of inhibition at 150 µg/disc (A. flavus) [mm]	zone of inhibition at 500 µg/disc (A. flavus) [mm]	zone of inhibition at 150 µg/disc (C. tropicalis) [mm]	zone of inhibition at 500 µg/disc (C. tropicalis) [mm]	zone of inhibition at 150 µg/disc (A. terreus) [mm]	zone of inhibition at 500 µg/disc (A. terreus) [mm]	zone of inhibition at 150 µg/disc (A. fumigatus) [mm]	zone of inhibition at 500 µg/disc (A. fumigatus) [mm]	further results
NNC(=O)CC(=O)NNc1ccccc1 [MSG-187]	< 10	22	< 10	< 10	< 10	20	< 10	40	< 10	17	< 10	22	< 10	36	< 10	18	< 10	< 10	< 10	32	–
NNC(=O)C(=O)NNc1ccc(F)cc1 [MSG-193]	20	40	22	40	15	> 40	15	> 40	18	> 40	20	> 40	15	> 40	30	> 40	12	32	20	> 40	–
COc1ccc(NNC(=O)C(=O)NN)cc1 [MSG-210]	32	35	28	30	39	> 40	27	40	28	32	32	> 40	10	9	34	36	19	22	10	16	Activity detected (mm) (T. pulmonis): 20 mm; Activity detected (mm) (N. carnea): 11 mm; Activity detected (mm) (A. baumannii): 18 mm; Activity detected (mm) (N. cyriacigeorgica): 15 mm
NNC(=O)C(=O)NNc1ccc(Cl)cc1 [MSG-214]	15	> 40	15	32	42	> 40	10	> 40	15	> 40	40	> 40	< 10	< 10	34	> 40	< 10	17	< 10	16	Activity detected (mm) (S. pneumoniae): 11 mm; Activity detected (mm) (T. pulmonis): 30 mm; Activity detected (mm) (N. carnea): 14 mm; Activity detected (mm) (A. baumannii): 12 mm; Activity detected (mm) (N. cyriacigeorgica): 25 mm
NNC(=O)C(=O)NNc1ccc(Br)cc1 [MSG-216]	13	> 40	19	35	36	> 40	10	36	11	> 40	24	> 40	< 10	< 10	26	> 40	< 10	10	< 10	10	Activity detected (mm) (T. pulmonis): 25 mm; Activity detected (mm) (N. carnea): 14 mm; Activity detected (mm) (K. pneumoniae): 11 mm; Activity detected (mm) (A. baumannii): 12 mm; Activity detected (mm) (N. cyriacigeorgica): 17 mm
Cc1ccc(NNC(=O)C(=O)NN)cc1 [MSG-218]	22	40	24	34	22	46	22	30	25	36	24	> 40	< 10	< 10	10	40	< 10	10	< 10	10	Activity detected (mm) (T. pulmonis): 33 mm; Activity detected (mm) (A. baumannii): 15 mm
COc1cccc(NNC(=O)C(=O)NN)c1 [MSG-227]	> 40	> 40	20	25	> 40	> 40	32	> 40	31	> 40	26	> 40	25	> 40	26	> 40	> 40	> 40	11	> 40	–
